Test results reported in patent publication US10391268B2, “Device and method of delivering particles in the upper respiratory tract” (SERVICES MEDICAUX ARNOLD ET JOAN ZIDULKA INC., priority 2016, dated 2019).

Test system: patient suffering from post-nasal drip and upper laryngeal syndrome
Experiment: two rounds of testing of orally administered, nasally exhaled aerosolized ciclesonide in a patient
Type: in vivo
Conditions: one patient; two rounds with an interval of two weeks; two sprays of 200 micrograms ciclesonide into FIG. 3 device, four to six oral inhalations each followed by nasal exhalation, morning and evening for two weeks
Description: The Applicant has performed two rounds of testing on a patient suffering from post-nasal drip and upper laryngeal syndrome with an interval of two weeks between the rounds, each round consisting in administering a therapeutically effective dose of ciclesonide using the method of the present invention. […] In some embodiments, the therapeutically effective dose of ciclesonide for the treatment of upper airway cough syndrome is from 25 to 800 micrograms. Use of ciclesonide for the treatment of upper airway cough syndrome provides the advantage of avoiding fungal infections typically associated with administration of corticosteroid in the posterior nasal region, pharynx and the larynx.
In conducting the rounds of testing, the Applicant used the embodiment of the oral delivery device of the present invention shown in FIG. 3. […] It should be noted that in some embodiments, the effective volume is greater or smaller than 375 milliliters. In operation, the patient released two sprays of aerosolized ciclesonide into the oral delivery device, each one of the sprays containing 200 micrograms of ciclesonide, and performed four to six oral inhalations, each one of the inhalations being followed by a nasal exhalation into the ambient atmosphere. Each one of the inhalations drew ambient air into the oral delivery device to sweep in an additional amount of aerosolized ciclesonide. […]

CC(C)C(=O)OCC(=O)[C@@]12O[C@H](C3CCCCC3)O[C@@H]1C[C@H]1[C@@H]3CCC4=CC(=O)C=C[C@]4(C)[C@H]3[C@@H](O)C[C@@]12C [ciclesonide]
patient-reported symptoms typical of upper airway cough syndrome following each round: significant alleviation of the symptoms
